Assay results as given in US5308869A, “Substituted amidines having high binding to the sigma receptor and the use thereof” (priority 1992, dated 1994).

Experiments:
[1] = system: sigma binding site; details: cited from earlier work
[2] = system: sigma receptor; assay: Sigma receptor binding assay, [^3 H]DTG, guinea pig brain membrane homogenates; details: guinea pig brain membranes; for Binding to / selectivity at [^3 H]DTG-labelled sigma sites: drug specificity profile; for IC50: read-out: IC50 vs [^3 H]DTG (MEAN), […] [^3 H]DTG, pH 7.4, 90 minutes at room temperature, mean with SEM and n in own columns
[3] = system: sigma sites; details: rat brain membrane; cited from earlier work
[4] = system: kappa receptors; details: cited from earlier work
[5] = system: mu receptors; details: cited from earlier work
[6] = in vivo; cited from earlier work
[7] = system: histaminergic sites; details: cited from earlier work
[8] = system: muscarinic sites; details: cited from earlier work
[9] = system: cholinergic sites; details: cited from earlier work
[10] = system: dopamine-stimulated CAMP production; details: in vitro; cited from earlier work
[11] = system: [^3 H]spiperone-labeled D2 site in striatum; details: chronic administration (20 days) to rats; cited from earlier work
[12] = system: D1 subclass of dopamine receptors; details: cited from earlier work
[13] = system: sigma receptor; details: cited from earlier work
[14] = system: rats; details: rat, in vivo; cited from earlier work
[15] = system: adrenergic sites; details: cited from earlier work
[16] = system: D2 class of striatal dopamine receptors; details: rat striatum; cited from earlier work
[17] = system: rhesus monkeys; details: introduction of foreign objects into cages; cited from earlier work
[18] = system: dopamine-stimulated production of CAMP; details: homogenates of rat striatum and olfactory tubercle; cited from earlier work
[19] = system: dopamine synthesis; details: cited from earlier work
[20] = system: apomorphine-induced mesolimbic behaviors; details: without altering intensity of stereotypic behaviors; cited from earlier work
[21] = system: sigma receptor; details: cited from earlier work; remark: listed apart in the source
[22] = humans; cited from earlier work

Compound: C=CCN1CCC2(C)c3cc(O)ccc3CC1C2C (single isomer, unassigned; (+)) [(+)SKF-10,047, N-allyl-normetazocine]
- Drug selectivity profile of sigma binding site [1]: selectively label a sigma receptor
- Binding to / selectivity at [^3 H]DTG-labelled sigma sites [2]: stereoselectivity for dextrorotatory isomers

Compound: CCCN1CCCC(c2cccc(O)c2)C1 (single isomer, unassigned; (+)) [(+)[^3 H]3-PPP, (+)[^3 H]3-(3-hydroxyphenyl)-N-(1-propyl)-piperidine]
- Selectivity for sigma sites [3]: selective for sigma sites
- Binding to / selectivity at [^3 H]DTG-labelled sigma sites [2]: virtually identical receptor binding characteristics and drug selectivity profiles

Compound: CCC12CCN(CC3CC3)C(C(=O)c3ccc(O)cc31)C2C (single isomer, unassigned; (+)) [(+)[^3 H]-ethylketazocine]
- Sigma site selectivity of radioligand [1]: not selective for the sigma site

Compound: C=CCN1CCC2(C)c3cc(O)ccc3CC1C2C (single isomer, unassigned; (+)) [(+)[^3 H]SKF-10,047]
- Sigma site selectivity of radioligand [1]: not selective for the sigma site

Compound: CC(C)=CCN1CCC2(C)c3cc(O)ccc3CC1C2C (single isomer, unassigned; (+)) [(+)pentazocine]
- Binding to / selectivity at [^3 H]DTG-labelled sigma sites [2]: stereoselectivity for dextrorotatory isomers

Compound: C=CCN1CCC2(C)c3cc(O)ccc3CC1C2C (single isomer, unassigned; (-)) [(-)-SKF-10,047, N-allyl-normetazocine]
- Drug selectivity profile of sigma binding site [1]: not the sigma receptors
- Binding to kappa receptors [4]: labeled the mu and kappa receptors
- Binding to mu receptors [5]: labeled the mu and kappa receptors

Compound: C[C@@H]1CN(CCCn2c3ccccc3c3ccccc32)C[C@H](C)N1 [9-[3-(3,5-cis-dimethylpiperazino)-propyl]carbazole]
- Anxiolytic activity [6]: anxiolytic activity

Compound: OC(CCCN1CCN(c2ncc(F)cn2)CC1)c1ccc(F)cc1 (centres unmarked) [BMY 14802]
- Binding to histaminergic sites [7]: does not bind
- Binding to muscarinic sites [8]: does not bind
- Binding to cholinergic sites [9]: does not bind
- Inhibition of dopamine-stimulated CAMP production [10]: does not inhibit dopamine-stimulated CAMP production
- Maximal density of [^3 H]spiperone-labeled D2 site in striatum [11]: did not increase the maximal density
- Interaction with D1 subclass of dopamine receptors [12]: does not appear to interact
- Inhibition of [^3 H]SCH 23390 binding ([12]; in vitro): does not inhibit
- Sigma receptor binding affinity [13]: relatively high affinity
- Potency at inhibiting sigma binding, dextrorotatory vs levorotatory enantiomer ([13]; dextrorotatory more potent than levorotatory enantiomer): 10 times
- Catalepsy in rats [14]: did not cause catalepsy in rats
- Binding to adrenergic sites [15]: does not bind
- Inhibition of [^3 H]spiperone binding to D2 receptors [16]: does not inhibit the binding

Compound: O=C1CC2(CCCC2)CC(=O)N1CCCCN1CCN(c2ncccn2)CC1 [Buspirone]
- Efficacy in taming of aggressive response [17]: efficacy in a predictive animal model

Compound: CC(=Nc1ccc(Br)cc1C)Nc1ccc(Br)cc1C [N,N'-Bis(4-bromo-2-tolyl)acetamidine]
- IC50 [2]: 25.8 nM

Compound: CC(=Nc1cccc2ccccc12)Nc1cccc2ccccc12 [N,N'-bis(1-naphthyl)acetamidine]
- IC50 [2]: 169 nM

Compound: CC(=Nc1ccccc1C(C)C)Nc1ccccc1C(C)C [N,N'-bis(2-isopropylphenyl)acetamidine, N,N'-Bis(2-isopropylphenyl)acetamidine]
- IC50 [2]: 77.4 nM

Compound: CCc1cccc(N=C(C)Nc2cccc(CC)c2)c1 [N,N'-bis(3-ethylphenyl)acetamidine, N,N'-Bis(3-ethylphenyl)acetamidine]
- IC50 [2]: 13 nM

Compound: CC(=Nc1ccccc1C)Nc1ccccc1C [N,N'-bis(-o-tolyl)acetamidine, N,N'-Bis(o-methylphenyl)acetamidine]
- IC50 [2]: 15 nM

Compound: CC(=NC12CC3CC(CC(C3)C1)C2)NC12CC3CC(CC(C3)C1)C2 [N,N'-bis(adamantan-1-yl)acetamidine, N,N'-Bis(adamantan-1-yl)acetamidine]
- IC50 [2]: 15.7 nM

Compound: CCc1ccccc1N=C(C)Nc1ccccc1CC [N,N'-bis-(o-ethylphenyl)acetamidine, N,N'-Bis(2-ethylphenyl)acetamidine]
- IC50 [2]: 36.9 nM

Compound: CC(=Nc1ccccc1C(C)C)Nc1cccc2ccccc12 [N-(1-naphthyl)-N'-(2-isopropylphenyl)-acetamidine]
- IC50 [2]: 118 nM

Compound: CCc1cccc(N=C(C)Nc2cccc3ccccc23)c1 [N-(1-naphthyl)-N'-(3-ethylphenyl)-acetamidine]
- IC50 [2]: 123 nM

Compound: CCc1cccc(N=C(C)Nc2cccc3ccccc23)c1 [N-(1-naphthyl)-N'-(m-ethylphenyl)-acetamidine]
- IC50 [2]: 2410 nM

Compound: CC(=NC1CCCCC1)NC12CC3CC(CC(C3)C1)C2 [N-(Adamantan-1-yl)-N'-(cyclohexyl)acetamidine]
- IC50 [2]: 71.9 nM

Compound: CC(=Nc1ccccc1C)NC12CC3CC(CC(C3)C1)C2 [N-(Adamantan-1-yl)-N'-(o-methylphenyl)acetamidine]
- IC50 [2]: 7.27 nM

Compound: CC(=NC1CCCCC1)Nc1ccccc1C [N-(o-Methylphenyl)-N'-(cyclohexyl)acetamidine]
- IC50 [2]: 9.01 nM

Compound: CN=C(C)Nc1ccccc1C [N-(o-tolyl)-N'-methylacetamidine]
- IC50 [2]: 354 nM

Compound: CC(=Nc1ccccc1C)NC1CC2CCC1C2 (centres unmarked) [N-Exonorbornyl-N'-(2-methylphenyl)acetamidine]
- IC50 [2]: 9.32 nM

Compound: [3H]c1ccc(NC(=N)Nc2ccc([3H])cc2C)c(C)c1 [[^3 H]DTG, N,N'-di-(4-[^3 H]-2-methylphenyl)-guanidine]
- Binding to / selectivity at [^3 H]DTG-labelled sigma sites [2]: binds specifically and with high affinity to a single class of binding sites

Compound: CN1CCc2cccc3c2[C@H]1Cc1ccc(O)c(O)c1-3 [apomorphine]
- Drug selectivity profile of sigma binding site [1]: insensitivity
- Binding to / selectivity at [^3 H]DTG-labelled sigma sites [2]: insensitivity

Compound: NCCc1ccc(O)c(O)c1 [dopamine]
- Drug selectivity profile of sigma binding site [1]: insensitivity
- Binding to / selectivity at [^3 H]DTG-labelled sigma sites [2]: insensitivity

Compound: O=C(CCCN1CCC(O)(c2ccc(Cl)cc2)CC1)c1ccc(F)cc1 [haloperidol]
- Drug selectivity profile of sigma binding site [1]: high affinity
- Binding to / selectivity at [^3 H]DTG-labelled sigma sites [2]: high affinity

Compound: C=CCN1CC[C@]23c4c5ccc(O)c4O[C@H]2C(=O)CC[C@@]3(O)[C@H]1C5 [naloxone]
- Drug selectivity profile of sigma binding site [1]: insensitivity
- Binding to / selectivity at [^3 H]DTG-labelled sigma sites [2]: insensitivity

Compound: C[C@@H]1CN(CCCn2c3ccccc3c3ccccc32)C[C@H](C)N1.Cl.Cl [rimcazole, cis-9-[3-(3,5-dimethyl-1-piperazinyl)-propyl]carbazole dihydrochloride]
- Effect on dopamine-stimulated production of CAMP [18]: does not affect dopamine-stimulated production of CAMP
- Acceleration of rate of dopamine synthesis [19]: does not accelerate the rate of dopamine synthesis
- Antagonism of apomorphine-induced mesolimbic behaviors [20]: antagonize apomorphine-induced mesolimbic behaviors selectively without altering the intensity of stereotypic behaviors
- Inhibition of specific binding of dextrorotatory tritiated SKF-10,047 [21]: competitively inhibit the specific binding
- Extrapyramidal effects [22]: without extrapyramidal effects
